Columns and labels:
[1] = tested on: neonatal mice chronically exposed to hyperoxia; assay: Pulmonary function test of lung compliance after neonatal hyperoxia; format: in vivo, mouse; conditions: 80% neonatal hyperoxia; intermittent treatment
Description: Pulmonary function tests (PFTs) were performed in 5- (CD1, MCD and CC) and 20-week old mice (CD1) post-neonatal HO or RA. Briefly, mice were anaesthetized with pentobarbital (100 mg/kg, intraperitoneal; American Pharmaceutical Partners), tracheostomized and mechanically ventilated at a rate of 150 breaths/min, a tidal volume of 10 ml/kg and positive end-expiratory pressure of 2-3 cm H2O using a computer-controlled animal ventilator (Sireq). The following perturbations were used to assess baseline respiratory mechanics and analyzed using Flexivent software (Sireq). Static lung compliance (Cst) was determined using the Salazar-Knowles equation applied to the plateau pressure measurements obtained between total lung capacity and functional residual capacity. Broadband forced oscillations were applied to determine tissue resistance (R) and Newtonian (airway) resistance (Rn) using a constant phase model. Mice used for measuring pulmonary function were not used for histological analyses.

[2] = tested on: neonatal mice chronically exposed to hyperoxia; assay: Oxygen-induced lung injury, lung airspace analysis (chord length Lm); format: in vivo, mouse; conditions: for alveolar enlargement, lung histology: 80% O2, 200 mg/kg i.p. intermittent during oxygen supplementation (Example 3); for protection of alveolar size (Lm) against moderate hyperoxia: about 45% O2, 2- and 5-week time points
Text: For this study we utilized a well-defined murine model of CLD using neonatal mice chronically exposed to hyperoxia for 2 weeks followed by normoxia for an additional 3. Timed pregnant mice were monitored hourly. Within hours of birth litters were pooled before being randomly redistributed to the newly delivered mothers. Experiments were begun on newborns at postnatal day 0. Half of the newborn pups were placed in a chamber designed to deliver variable oxygen concentrations (Biospherix Ltd) and set to 80% O2 (HO) and the other half remained in room air (RA) as age-matched controls. Mothers were rotated every 12 hours to prevent death from acute O2 toxicity. Neonatal CD1 mice also referred to as wild-type mice (Charles River), MCD mice (WBB6F1^−W/Wv) and their mast cell competent litter mates WBB6F1-^+/^+ (congenic controls (CC)) (Jackson Laboratories) were exposed to either HO or RA for 2 weeks and then kept in room air (FiO2 of 0.21) an additional 3 weeks for the 5-week time point. Some CD1 mice (HO and RA) were also maintained 18 weeks in room air for the 20-week time point. Survival and weight were monitored daily. All mice (CD1, MCD, and CC) used in this study were healthy at birth and survived until sacrificed. Unless specifically noted as CC or MCD, mouse experiments were performed with CD1 mice.
Oxygen-induced lung injury and lung airspace analysis. A well-defined murine model of CLD, a.k.a. bronchopulmonary dysplasia, using neonatal mice chronically exposed to hyperoxia followed by normoxia was used for our studies. Timed pregnant CD1 mice (Charles River) were monitored hourly. Within hours of birth litters were pooled before being randomly redistributed to the newly delivered mothers. Half of the newborn pups were immediately placed in a chamber designed to deliver variable oxygen concentrations (Biospherix) and set to 80%, 45% or 30% O2 (hyperoxia) and the other half remained in room air. Mothers were rotated every 12 hrs to prevent death from acute O2 toxicity. Newborn pups were exposed to either hyperoxia or room air for 2 weeks. […] Some animals were then kept in room air for an additional 3 weeks or 18 weeks before analysis. Lungs from mice were fixed at a constant inflation pressure of 25 cm H2O in 10% neutral buffered formalin followed by paraffin embedding. Sections (7 μm) were cut and slides of paraffinized tissue sections were deparaffinized, rehydrated, and washed in distilled water. Sections were stained with hematoxylin and eosin to visualize the structure of the lung. The direct method was used for the accurate estimation of the mean linear intercept length (Lm) (chord length) to assess the mean free distance in the alveoli. This method uses a set of random intercepts and calculates Lm from their frequency distribution and provides results on alveolar size distribution and alveolar surface area. […] On average 30-50 non-overlapping 1 mm^2 fields were analyzed for each lung section. Mean chord length of each alveolus (μm) was measured with the areas of approximately 4,000 individual alveoli/mouse measured in sections from room air mice and about 2,000 individual alveoli/mouse were analyzed in lung sections from hyperoxic mice.
The direct method was used for the accurate estimation of the mean linear intercept length (Lm) (chord length) to assess the mean free distance in the alveoli. […] On average 30-50 non-overlapping 1 mm^2fields were analyzed for each lung section and mean chord length of each alveolus (μm) was measured.

Hep3B cells = assay: HIF-1α stabilization and EPO expression in cultured hepatoma cells; format: cell-based, human
HIF PHD = assay: luc-ODD luciferase reporter, live imaging and organ lysates; format: in vivo, mouse
Description: Detection of luc-ODD luciferase reporter in vivo and in vitro. Live imaging of luciferase activity was performed using Bruker Xtreme small animal x-ray, fluorescence bioluminescence imaging system. Luc-ODD mouse pups at 12 days of age (P12) were divided into appropriate experimental groups identified by ear notches and treated according to the experimental design, i.e., various length of pharmacological treatment (0, 3, 9, 24 hrs), or route of administration (intraperitoneal vs subcutaneous for 3 hrs). […] Ten minutes later, pups (in groups of 2 to 4) were placed in an imaging chamber supplied with a heated pad and inhalation cones for oxygen/isofurane mixture. Ventral and dorsal bioluminescent images were collected for 30 sec followed by white light images taken at autoexposure time. Light and luminescent images where then superimposed and quantitatively analyzed using Bruker MI v7 software. Luciferase activity in mouse organs was detected as follows. […] Tissues were placed in Glo Lysis Buffer (Promega), homogenized with disposable plastic pestles fitted to 1.5 mL microtubes on ice and centrifuged at 20,000×g, 4° C., for 15 min. Protein concentrations of tissue extracts were determined using BCA Protein Assay (Thermo Sci), adjusted to 150 ug (retina), 300 ug (kidney, spleen, lung) or 600 ug (brain, liver) per assay reaction by diluting with Glo Lysis Buffer in a total volume of 100 uL and placed in the wells of white opaque 96-well plate. Diluted extracts were then brought to room temperature, mixed with equal volume (100 uL) of ready-to-use luciferase substrate Bright-Glo Luciferase Assay System (Promega) and luminescence was measured immediately by a luminometer/fluorimeter Victor X2 (PerkinElmer).

Mast cells = assay: Mast cell protease (tryptase, chymase) abundance by Western blot; format: cell-based; conditions: high oxygen (80%)
Text: FIG. 14. […] Mast cells express tryptase and chymase. […] N=4 separate blots, different samples. Aliquots of purified TA and HMC-1 exosomes were homogenized and the protein amounts determined by Lowry assay. Primary antibodies used were: mouse monoclonal TSG 101 (Santa Cruz sc-7964) at 1:500 dilution, mouse monoclonal Alix (Cell Signaling, 2171) at 1:1000 dilution, rabbit polyclonal CD63 (Santa Cruz, sc-15363) at 1:500 dilution, rabbit polyclonal chymase at a 1:2500 dilution (Abcam, 186417), mouse monoclonal mast cell tryptase (Abcam, ab2378) at 1:3000 dilution, rabbit polyclonal elastase (Abcam, ab68672) at 1:1000 dilution, mouse monoclonal mast cell CPA3 (Abcam, ab72575) at 1:500 dilution, and mouse monoclonal GAPDH (Cell Signaling, 14C10) and β-actin (Cell Signaling, 3700) at 1:100,000 dilution. GAPDH and β-actin were used as loading controls.

EPO = assay: ELISA of serum EPO; format: in vivo, mouse
HIF-1α = assay: Western blot of HIF-1α protein in mouse organs; format: in vivo
lung mast cells = assay: Lung mast cell number after neonatal hyperoxia; format: in vivo, mouse; conditions: 10 mg/kg, 5-week time point
Text: Lungs from mice (CD1, MCD and CC), not undergoing pulmonary function testing, were fixed at a constant inflation pressure of 25 cm H2O in 10% neutral buffered formalin followed by paraffin embedding. Slides with 7 μm sections were deparaffinized, rehydrated, and washed in distilled water. Some sections were stained with hematoxylin and eosin (H&E) to visualize the structure of the lung. Other sections were stained with an antibody (CC10) (Santa Cruz Biotechnology) (1:50 dilution) to detect club cells, a cell type specific to the airways. Analysis on the alveolar space deliberately avoided airways and blood vessels. For each animal, 5 lung sections were analyzed and quantified as cells per mm^2 of lung tissue. Mast cells were detected in fixed tissue using either the glycoprotein avidin, conjugated to the enzyme horseradish peroxidase (HRP) (Vector Laboratories) or toluidine blue, the classic metachromatic stain for mast cells. Conjugated avidin is a well-defined histochemical method for identifying rodent and human mast cells, which express chondroitin sulfate E proteoglycans and heparin proteoglycans, respectively, in the secretory granules, binding specifically to the proteoglycan granules. Non-specific staining of biotin or biotin-like molecules previously reported […]. Deparaffinized sections were exposed to avidin-HRP 1:500. […]

[3] = kidney and liver, single i.p. injection

| Compound | lung compliance [1] | alveolar enlargement, lung histology [2] | HIF-1α stabilization and expression of EPO mRNA and protein (Hep3B cells) | duration of HIF PHD inhibition (HIF PHD; [3]) | half-life of HIF PHD inhibition (HIF PHD; [3]) [days] | organs with highest luminescence (HIF PHD; luc-ODD mouse, ventral and dorsal views, i.p. or s.c. injection) | luciferase activity over baseline (HIF PHD; tissue lysates, liver) [fold] | hyperoxia-induced tryptase and chymase abundance (Mast cells) | hyperoxia-induced tryptase and chymase abundance (Mast cells; listed as RXD) | time of maximal increase in serum erythropoietin (EPO) (EPO; after i.p. injection) [h] | dose of maximal effect, serum EPO as marker of HIF-1 activity (EPO; dose response in the mouse) [mg/kg bodyweight] | increase in serum EPO protein concentration (EPO; i.p. 10 mg/kg, P8 pups) [fold] | alveolar size by chord length (Lm) ([2]; 80% O2 first 2 weeks then 3 weeks room air, 10 mg/kg s.c. intermittent, CD1 pups, 5-week time point, 10 mg/kg) | protection of alveolar size (Lm) against moderate hyperoxia ([2]; CD1 pups) | protection of alveolar size (Lm) against moderate hyperoxia ([2]; CD1 pups, listed as RXD) | increase of HIF-1α protein (HIF-1α; liver and kidney) | increase of HIF-1α protein (HIF-1α; spleen, lung, brain, and retina) | lung mast cell increase (lung mast cells; moderate (45%) hyperoxia) | lung mast cell increase (lung mast cells; severe (80%) hyperoxia) |
| --- | --- | --- | --- | --- | --- | --- | --- | --- | --- | --- | --- | --- | --- | --- | --- | --- | --- | --- | --- |
| COC(=O)CNC(=O)C(=O)OC [DMOG, N-(2-Methoxy-2-oxaoacetyl)glycine methyl ester] | maintains normal lung compliance | normalizes alveolar enlargement |  |  |  |  |  |  |  |  |  |  |  |  |  |  |  |  |  |
| Cc1nc(C(=O)NCC(=O)O)c(O)c2ccc(Oc3ccccc3)cc12 [Roxadustat, N-[(4-hydroxy-1-methyl-7-phenoxyisoquinolin-3-yl)carbonyl]glycine] |  | reduced | can be recapitulated | at least 24 hours | 2 to 3 | liver and kidney | 6 | decreases | decreased | 6 | 10 | 8 | statistically significant normalization in alveolar size | statistically significant normalization in alveolar size | protective | 5-10 fold | two-fold increase | prevents the increase in mast cells | prevents the increase in mast cells |

Source: patent US11510917B2, “HIF-stabilization and prevention of hyperoxia-induced neonatal lung disease” (CORNELL UNIVERSITY, priority 2016, dated 2022)
